Measured values from article PMC7673538 (PLoS Biology, 2020).
Values joined by “and” are separate entries in the source; they are usually repeats but may differ in a detail not shown here. Equal values may be shown once. Read-outs that look alike come from different tables or passages of the source.

Tests used:
HRV-B14 = assay: microbe, parasite or virus in culture; assay type: cell-based, human rhinovirus; conditions: Human rhinovirus sp.
EV-A71 = assay: microbe, parasite or virus in culture; assay type: cell-based, enterovirus A71; conditions: for EC50: Enterovirus A
human DAT = molecular target: T1, human DAT (Homo sapiens, UniProt Q01959); assay type: cell-based; conditions: for DAT, Mean (Figure 8B): Control = 100; for DAT, Mean as % (Figure 8B): Control = 100%
T1 construct: expressed in transfected cells; host or cells: HEK293 (gift of Dr. Hoener, F. Hoffmann-La Roche)

HRV-A2 [1] = assay: microbe, parasite or virus in culture; assay type: cell-based, human rhinovirus; conditions: Human rhinovirus sp., HRVA2, HeLa R19, read-out: EC50 HRV-A2
HRV-A2 [2] = assay type: cell-based, human rhinovirus
CV-B3 = assay: microbe, parasite or virus in culture; assay type: cell-based, coxsackievirus B3; conditions: Enterovirus B
EV-D68 = assay: microbe, parasite or virus in culture; assay type: cell-based, enterovirus D68; conditions: for EC50: Enterovirus D

T1 sequence (Q01959 whole entry): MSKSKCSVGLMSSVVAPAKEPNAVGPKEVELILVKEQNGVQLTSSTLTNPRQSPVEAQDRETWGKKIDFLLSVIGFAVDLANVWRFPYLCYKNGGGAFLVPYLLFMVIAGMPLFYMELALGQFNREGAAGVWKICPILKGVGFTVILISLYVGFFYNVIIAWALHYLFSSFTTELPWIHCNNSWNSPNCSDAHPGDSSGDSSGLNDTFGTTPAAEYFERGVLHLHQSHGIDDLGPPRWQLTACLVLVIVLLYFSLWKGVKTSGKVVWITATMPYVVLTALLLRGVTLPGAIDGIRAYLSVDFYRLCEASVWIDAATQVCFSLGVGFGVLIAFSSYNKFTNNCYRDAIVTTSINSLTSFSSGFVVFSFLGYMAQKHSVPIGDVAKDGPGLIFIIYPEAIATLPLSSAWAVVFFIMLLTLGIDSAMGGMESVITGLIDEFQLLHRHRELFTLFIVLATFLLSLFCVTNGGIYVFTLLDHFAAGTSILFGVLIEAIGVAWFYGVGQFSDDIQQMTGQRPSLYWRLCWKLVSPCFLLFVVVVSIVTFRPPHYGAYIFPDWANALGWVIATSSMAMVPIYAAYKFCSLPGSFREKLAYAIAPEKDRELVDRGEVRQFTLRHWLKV

O=C(c1ccco1)N(Cc1ccc(C(F)(F)F)cc1)c1ccccc1 [Compound 19d, N-phenyl-N-(4-(trifluoromethyl)benzyl)furan-2-carboxamide]
EC50 (HRV-B14; HRVB14, HeLa R19, read-out: EC50 Exp1): 4.76 µM
EC50 (HRV-B14; HRVB14, HeLa R19, read-out: EC50 Exp2): 3.61 µM
EC50 (HRV-B14; HRVB14, HeLa R19, read-out: EC50 HRV-B14): 4.19 ± 0.58 µM
resistance of reverse-engineered EV-A71 2C M193L (in words) (EV-A71): conferred 19d resistance
resistance of reverse-engineered EV-A71 2C M193L/R151H (in words) (EV-A71): further increased the resistance
resistance of reverse-engineered EV-A71 2C M193L/R151H/T133S (in words) (EV-A71): slightly further increased resistance
resistance of reverse-engineered EV-A71 2C R151H (in words) (EV-A71): did not confer resistance
multicycle replication assay read-out, EV-A71(BrCr) (EV-A71; 0.2344 µM): 5.8952 and 4.978 and 5.24
multicycle replication assay read-out, EV-A71(BrCr) (EV-A71; 0.4688 µM): 6.681 and 6.55 and 6.0262
multicycle replication assay read-out, EV-A71(BrCr) (EV-A71; 1.875 µM): 102.314 and 101.266 and 100.218
multicycle replication assay read-out, EV-A71(BrCr) (EV-A71; 3.75 µM): 101.266 and 99.5633 and 96.5502
multicycle replication assay read-out, EV-A71(BrCr) (EV-A71; 7.5 µM): 100.48 and 99.0393 and 95.2402
multicycle replication assay read-out, EV-A71(BrCr) (EV-A71; 15 µM): 94.1921 and 92.2271 and 88.5589
multicycle replication assay read-out, EV-A71(BrCr) (EV-A71; 30 µM): 98.1223 and 94.4541 and 90.524
EC50 (EV-A71; EVA71, HeLa R19, read-out: EC50 Average): 1.29 µM
EC50 (EV-A71; EVA71, HeLa R19, read-out: EC50 EV-A71): 0.27 ± 0.12 µM
EC50 (EV-A71; EVA71, HeLa R19, read-out: EC50 EV-A71 strain BrCr): 1.68 ± 0.62 µM
EC50 (EV-A71; EVA71, HeLa R19, read-out: EC50 EV-A71 strain TW/2728/04): 2.33 ± 1.23 µM
EC50 (EV-A71; EVA71, HeLa R19, read-out: EC50 EV-A71 strain TW/2945/98): 2.9 ± 1.03 µM
EC50 (EV-A71; EVA71, HeLa R19, read-out: EC50 EV-A71 strain TW/70811/08): 0.754 ± 0.01 µM
EC50 (EV-A71; EVA71, HeLa R19, read-out: EC50 EV-A71 strain TW/72232/04): 2.54 ± 1.72 µM
EC50 (EV-A71; EVA71, HeLa R19, read-out: EC50 EV-A71 strain TW/96016/08): 1.94 ± 0.82 µM
DAT, Mean (Figure 8B) (human DAT; 1µM): 99.9783
DAT, Mean as % (Figure 8B) (human DAT; 1µM): 76%
DAT, Mean (Figure 8B) (human DAT; 100µM): 90.1191
DAT, Mean as % (Figure 8B) (human DAT; 100µM): 90%
inhibition of DAT function (in words) (human DAT; HEK293 cells expressing human DAT, 1 μM or 100 μM): neither 12a, 19b, 19d, nor the combined compound 12b inhibited
EC50 (HRV-A2 [1]): 15.2 ± 1.13 µM
virus titer, TCID50/ml (Figure 2A) (HRV-A2 [2]; compound concentration 0.01 µM): 354813 TCID50/ml
virus titer, TCID50/ml (Figure 2A) (HRV-A2 [2]; compound concentration 1 µM): 169824 TCID50/ml and 188844 TCID50/ml
virus titer, TCID50/ml (Figure 2A) (HRV-A2 [2]; compound concentration 3 µM): 354813 TCID50/ml and 588844 TCID50/ml
virus titer, TCID50/ml (Figure 2A) (HRV-A2 [2]; compound concentration 30 µM): 1316.23 TCID50/ml and 1316 TCID50/ml
EC50 (CV-B3; CVB3, HAP1, read-out: EC50 Hap1 Average): 0.75 µM
EC50 (CV-B3; CVB3, HAP1, read-out: Exp 1 EC50 Hap1): 0.69 µM
EC50 (CV-B3; CVB3, HAP1, read-out: Exp 2 EC50 Hap1): 0.8 µM
resistance of reverse-engineered EV-D68 2C T196S (in words) (EV-D68): provided 19d resistance, although resistance was rather moderate
resistance of reverse-engineered EV-D68 2C V96M (in words) (EV-D68): provided 19d resistance, although resistance was rather moderate
multicycle replication assay read-out, EV-D68 Fermon (EV-D68; 0.2344 µM): 10 and 12
multicycle replication assay read-out, EV-D68 Fermon (EV-D68; 0.4688 µM): 22 and 14 and 23
multicycle replication assay read-out, EV-D68 Fermon (EV-D68; 0.9375 µM): 10 and 16.5525
multicycle replication assay read-out, EV-D68 Fermon (EV-D68; 1.875 µM): 102.405 and 111.906 and 97.379
multicycle replication assay read-out, EV-D68 Fermon (EV-D68; 3.75 µM): 102.405 and 111.906 and 97.379
multicycle replication assay read-out, EV-D68 Fermon (EV-D68; 7.5 µM): 109.948 and 106.039 and 109.278
multicycle replication assay read-out, EV-D68 Fermon (EV-D68; 15 µM): 109.948 and 106.039 and 109.278
multicycle replication assay read-out, EV-D68 Fermon (EV-D68; 30 µM): 109.948 and 106.039 and 109.278
EC50 (EV-D68; EVD68, HeLa R19, […], read-out: EC50 Exp1): 3.84 µM
EC50 (EV-D68; EVD68, HeLa R19, read-out: EC50 EV-D68): 1.37 ± 0.02 µM
EC50 (EV-D68; EVD68, HeLa R19, read-out: EC50 EV-D68 strain 4310900947): 4.6 ± 0.37 µM
EC50 (EV-D68; EVD68, HeLa R19, read-out: EC50 EV-D68 strain 4310901348): 3.55 ± 0.43 µM
EC50 (EV-D68; EVD68, HeLa R19, read-out: EC50 EV-D68 strain 4310902042): 3.53 ± 0.41 µM
EC50 (EV-D68; EVD68, HeLa R19, read-out: EC50 EV-D68 strain 4310902284): 1.82 ± 0.57 µM
EC50 (EV-D68; EVD68, HeLa R19, read-out: EC50 EV-D68 strain 4311000742): 3.91 ± 0.13 µM
